Test results as given in patent US10611740B2, “Aryl dihydro-2H-benzo[b][1,4]oxazine sulfonamide and related compounds for use as agonists of RORγ and the treatment of disease” (Lycera Corporation, priority 2015, dated 2020).

Biological target: T1, RORγ-LBD (Homo sapiens, UniProt P51449)
T1 construct: made in house; host or cells: SF9 cells (baculovirus)
T1 sequence (P51449 269-508 limits assumed): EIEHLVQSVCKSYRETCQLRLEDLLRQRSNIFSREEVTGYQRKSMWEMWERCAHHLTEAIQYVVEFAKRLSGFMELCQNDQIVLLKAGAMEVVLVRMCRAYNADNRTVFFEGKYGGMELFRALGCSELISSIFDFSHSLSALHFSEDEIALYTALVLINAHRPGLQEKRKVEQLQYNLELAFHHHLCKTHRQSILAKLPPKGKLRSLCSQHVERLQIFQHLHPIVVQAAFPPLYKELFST
Assay: RORγ-Ligand Binding Domain (LBD) TR-FRET Assay;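 for TR-FRET Assay Max Response: 665/615 nm ratio relative to signal without ursolic acid or compound set at 100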
Assay type: biochemical
Procedure: Assay procedures and results are described below.
HIS-tagged RORγ-LBD protein was expressed in SF9 cells using a baculovirus expression system. The lysate was diluted in assay buffer (50 mM Tris pH 7.0, 50 mM KCl, 1 mM EDTA, 0.1 mM DTT, 0.01% BSA) to obtain RORγ-LBD final concentration of ˜3 nM in a 384-well assay plate (need to titrate for each batch of protein).
A stock of biotinylated-LXXLL peptide from coactivator SRC1 (Biotin-[…]) was prepared in assay buffer and added to each well (200 nM final concentration). […] RORγ antagonist ursolic acid was also included at a final concentration of 2 μM. Compounds were diluted in DMSO and further diluted in assay buffer with a final DMSO concentration at 1%.

| Structure (SMILES) | EC50 [nM] | TR-FRET Assay Max Response |
| --- | --- | --- |
| C[C@@H](C[C@H]1CN(S(=O)(=O)c2cccc(C(F)(F)F)c2)c2cc(-c3cc(Cl)cc(OC(F)F)c3)ccc2O1)C(=O)O [Compound 46R, (S)-3-((S)-6-(3-chloro-5-(difluoromethoxy)phenyl)-4-((3-(trifluoromethyl)phenyl)sulfonyl)-3,4-dihydro-2H-benzo[b][1,4]-oxazin-2-yl)-2-methylpropanoic acid] | < 500 | *** (The symbol “***” indicates a value in the range of greater than 150 to 200) |
| C[C@@H](C[C@H]1CN(S(=O)(=O)c2cccc(C(F)(F)F)c2)c2cc(-c3cc(F)cc(F)c3)ccc2O1)C(=O)O [Compound 46S, (S)-3-((S)-6-(3,5-difluorophenyl)-4-((3-(trifluoromethyl)phenyl)-sulfonyl)-3,4-dihydro-2H-benzo[b][1,4]oxazin-2-yl)-2-methylpropanoic acid] | < 500 | *** (The symbol “***” indicates a value in the range of greater than 150 to 200) |
| C[C@@H](C[C@H]1CN(S(=O)(=O)c2cccc(C(F)(F)F)c2)c2cc(-c3cccc(C(F)(F)F)n3)ccc2O1)C(=O)O [Compound 46T, (S)-2-methyl-3-((S)-4-((3-(trifluoromethyl)phenyl)sulfonyl)-6-(6-(trifluoromethyl)pyridin-2-yl)-3,4-dihydro-2H-benzo[b][1,4]-oxazin-2-yl)propanoic acid] | < 500 | *** (The symbol “***” indicates a value in the range of greater than 150 to 200) |
| C[C@H](C[C@H]1CN(S(=O)(=O)c2cccc(C(F)(F)F)c2)c2cc(-c3cccc(C(F)(F)F)n3)ccc2O1)C(=O)O [Compound 46U, (R)-2-methyl-3-((S)-4-((3-(trifluoromethyl)phenyl)sulfonyl)-6-(6-(trifluoromethyl)pyridin-2-yl)-3,4-dihydro-2H-benzo[b][1,4]-oxazin-2-yl)propanoic acid] | < 500 | *** (The symbol “***” indicates a value in the range of greater than 150 to 200) |
| O=C(O)C1(C[C@H]2CN(S(=O)(=O)c3cccc(C(F)(F)F)c3)c3cc(-c4cccc(C(F)(F)F)n4)ccc3O2)COC1 [Compound 51D, (S)-3-((4-((3-(trifluoromethyl)-phenyl)sulfonyl)-6-(6-(trifluoro-methyl)pyridin-2-yl)-3,4-dihydro-2H-benzo[b][1,4]oxazin-2-yl)methyl)oxetane-3-carboxylic acid] | < 500 | *** (The symbol “***” indicates a value in the range of greater than 150 to 200) |
| O=C(O)C1(C[C@H]2CN(S(=O)(=O)c3cccc(C(F)(F)F)c3)c3cc(-c4cc(F)ccc4F)ccc3O2)CCOCC1 [Compound 57, (S)-4-((6-(2,5-difluorophenyl)-4-((3-(trifluoromethyl)phenyl)sulfonyl)-3,4-dihydro-2H-benzo[b][1,4]oxazin-2-yl)methyl)tetrahydro-2H-pyran-4-carboxylic acid] | < 500 | *** (The symbol “***” indicates a value in the range of greater than 150 to 200) |
| O=C(O)[C@H]1C[C@@H]([C@H]2CN(S(=O)(=O)c3cccc(C(F)(F)F)c3)c3cc(-c4cc(F)ccc4F)ccc3O2)C1 [Compound 60H, (1R,3s)-3-((S)-6-(2,5-difluoro-phenyl)-4-((3-(trifluoromethyl)-phenyl)sulfonyl)-3,4-dihydro-2H-benzo[b][1,4]oxazin-2-yl)cyclobutane-1-carboxylic acid] | < 500 | ** (The symbol “**” indicates a value in the range of greater than 90 to 150) |
| O=C(O)[C@H]1C[C@H]([C@H]2CN(S(=O)(=O)c3cccc(C(F)(F)F)c3)c3cc(-c4cc(F)ccc4F)ccc3O2)C1 [Compound 60I, (1S,3r)-3-((S)-6-(2,5-difluoro-phenyl)-4-((3-(trifluoromethyl)-phenyl)sulfonyl)-3,4-dihydro-2H-benzo[b][1,4]oxazin-2-yl)cyclobutane-1-carboxylic acid] | < 500 | ** (The symbol “**” indicates a value in the range of greater than 90 to 150) |
| O=C(O)[C@H]1C[C@@H]([C@H]2CN(S(=O)(=O)c3cccc(C(F)(F)F)c3)c3cc(-c4cc(F)cc(OC(F)F)c4)ccc3O2)C1 [Compound 60J, (1R,3s)-3-((S)-6-(3-(difluoro-methoxy)-5-fluorophenyl)-4-((3-(trifluoromethyl)phenyl)-sulfonyl)-3,4-dihydro-2H-benzo[b][1,4]-oxazin-2-yl)cyclobutane-1-carboxylic acid] | < 500 | *** (The symbol “***” indicates a value in the range of greater than 150 to 200) |
| O=C(O)[C@H]1C[C@H]([C@H]2CN(S(=O)(=O)c3cccc(C(F)(F)F)c3)c3cc(-c4cc(F)cc(OC(F)F)c4)ccc3O2)C1 [Compound 60K, (1S,3r)-3-((S)-6-(3-(difluoro-methoxy)-5-fluorophenyl)-4-((3-(trifluoromethyl)phenyl)-sulfonyl)-3,4-dihydro-2H-benzo[b][1,4]oxazin-2-yl)cyclobutane-1-carboxylic acid] | < 500 | ** (The symbol “**” indicates a value in the range of greater than 90 to 150) |
| O=C(O)[C@H]1C[C@@H]([C@H]2CN(S(=O)(=O)c3cccc(C(F)(F)F)c3)c3cc(-c4cccc(C(F)(F)F)n4)ccc3O2)C1 [Compound 71, (1R,3s)-3-((S)-4-((3-(trifluoromethyl)phenyl)sulfonyl)-6-(6-(trifluoromethyl)pyridin-2-yl)-3,4-dihydro-2H-benzo[b][1,4]oxazin-2-yl)cyclobutane-1-carboxylic acid] | < 500 | *** (The symbol “***” indicates a value in the range of greater than 150 to 200) |
| O=C(O)[C@H]1C[C@H]([C@H]2CN(S(=O)(=O)c3cccc(C(F)(F)F)c3)c3cc(-c4cccc(C(F)(F)F)n4)ccc3O2)C1 [Compound 72, (1S,3r)-3-((S)-4-((3-(trifluoromethyl)phenyl)sulfonyl)-6-(6-(trifluoromethyl)pyridin-2-yl)-3,4-dihydro-2H-benzo[b][1,4]oxazin-2-yl)cyclobutane-1-carboxylic acid] | < 500 | ** (The symbol “**” indicates a value in the range of greater than 90 to 150) |
| O=C1CC[C@@](C[C@H]2CN(S(=O)(=O)c3cccc(C(F)(F)F)c3)c3cc(-c4cc(F)cc(OC(F)F)c4)ccc3O2)(C(=O)O)N1 [Compound 77C, (R)-2-(((S)-6-(3-(difluoro-methoxy)-5-fluorophenyl)-4-((3-(trifluoromethyl)phenyl)sulfonyl)-3,4-dihydro-2H-benzo[b][1,4]-oxazin-2-yl)methyl)-5-oxopyrrolidine-2-carboxylic acid] | < 500 | ** (The symbol “**” indicates a value in the range of greater than 90 to 150) |
| O=C1CC[C@](C[C@H]2CN(S(=O)(=O)c3cccc(C(F)(F)F)c3)c3cc(-c4cc(F)cc(OC(F)F)c4)ccc3O2)(C(=O)O)N1 [Compound 77D, (S)-2-(((S)-6-(3-(difluoro-methoxy)-5-fluorophenyl)-4-((3-(trifluoromethyl)phenyl)sulfonyl)-3,4-dihydro-2H-benzo[b][1,4]-oxazin-2-yl)methyl)-5-oxopyrrolidine-2-carboxylic acid] | < 500 | ** (The symbol “**” indicates a value in the range of greater than 90 to 150) |
| CC(=O)NC1(C[C@H]2CN(S(=O)(=O)c3cccc(C(F)(F)F)c3)c3cc(-c4cc(F)cc(OC(F)F)c4)ccc3O2)CCOCC1 [Compound 78I, (S)-N-(4-((6-(3-(difluoro-methoxy)-5-fluorophenyl)-4-((3-(trifluoromethyl)phenyl)sulfonyl)-3,4-dihydro-2H-benzo[b][1,4]-oxazin-2-yl)methyl)tetrahydro-2H-pyran-4-yl)acetamide] | < 500 | *** (The symbol “***” indicates a value in the range of greater than 150 to 200) |
| CC(=O)NC1(C[C@H]2CN(S(=O)(=O)c3cccc(C(F)(F)F)c3)c3cc(-c4cc(F)ccc4F)ccc3O2)CCOCC1 [Compound 78J, (S)-N-(4-((6-(2,5-difluorophenyl)-4-((3-(trifluoromethyl)phenyl)-sulfonyl)-3,4-dihydro-2H-benzo[b][1,4]oxazin-2-yl)methyl)tetrahydro-2H-pyran-4 yl)acetamide] | < 500 | *** (The symbol “***” indicates a value in the range of greater than 150 to 200) |
| C[C@@H](CC(=O)O)[C@H]1CN(S(=O)(=O)c2cccc(C(F)(F)F)c2)c2cc(-c3cc(F)cc(OC(F)F)c3)ccc2O1 [Compound 80A, (S)-3-((S)-6-(3-(difluoro-methoxy)-5-fluorophenyl)-4-((3-(trifluoromethyl)phenyl)sulfonyl)-3,4-dihydro-2H-benzo[b][1,4]-oxazin-2-yl)butanoic acid] | < 500 | *** (The symbol “***” indicates a value in the range of greater than 150 to 200) |
